Results reported in article PMC6320956, “O-Aminoalkyl-O-Trimethyl-2,3-Dehydrosilybins: Synthesis and In Vitro Effects Towards Prostate Cancer Cells” (Molecules, 2018).
Like-named read-outs stand apart in the source and are kept apart here.

Key:
PC-3 cells [1] = test: WST-1 cell proliferation assay, PC-3; assay type: cell-based, human; conditions: for IC50: Homo sapiens, PC-3, 72 h, WST-1, three days of exposure, mean ± SD, n = 3; for IC50 (Silibinin)/IC50(Derivative) PC-3: fold potency relative to silibinin
Procedure: (§1) The in vitro antiproliferative activities of six 7-O-substituted and 26 3-O-substituted silybin derivatives were evaluated using the WST-1 cell proliferation assay, according to the procedure as described in the Experimental Section in both androgen-sensitive (LNCaP) and androgen-insensitive (PC-3 and DU145) human prostate cancer cell lines. Silibinin and docetaxel were used as a positive control for comparison in the parallel experiments and the IC50 values calculated from the dose-response curves are summarized in Table 1. […] A three-carbon linker in 11 and 29, as well as a five-carbon linker in 31, 37 and 40, are beneficial to the potency.
(§2) All cell lines were initially purchased from American Type Culture Collection (ATCC^TM) (Manassas, VA, USA). The PC-3 and LNCaP prostate cancer cell lines were routinely cultured in RPIM-1640 medium supplemented with 10% FBS and 1% penicillin/streptomycin. The DU145 prostate cancer cells were routinely cultured in Eagle’s Minimum Essential Medium (EMEM) supplemented with 10% FBS and 1% penicillin/streptomycin. Cultures were maintained in a high humidity environment supplemented with 5% carbon dioxide at a temperature of 37 °C.
(§3) PC-3, DU145, or LNCaP cells were plated in 96-well plates at a density of 3,200 per well in 200 µL of culture medium. The cells were then separately treated with silibinin, or synthesized silibinin derivatives, at five different doses for three days, while equal treatment volumes of DMSO (0.25%) were used as the vehicle control. The cells were cultured in a CO2 incubator at 37 °C for three days. A total of 10 µL of the premixed WST-1 cell proliferation reagent (Clontech) was added to each well. After mixing gently for one min on an orbital shaker, the cells were incubated for an additional 3 h at 37 °C. To ensure a homogeneous distribution of color, it is important to mix gently on an orbital shaker for one min. The absorbance of each well was measured using a microplate reader (Synergy HT, BioTek, Winooski, VT, USA) at a wavelength of 430 nm. […] For calculating the IC50 values, a linear proliferative inhibition was made based on at least five dosages for each compound.

DU145 cells [2] = test: WST-1 cell proliferation assay, DU145; assay type: cell-based, human; conditions: for IC50: Homo sapiens, DU-145, 72 h, WST-1, three days of exposure, mean ± SD, n = 3; for IC50 (Silibinin)/IC50(Derivative) DU145: fold potency relative to silibinin
Procedure: as §1, §2, §3

LNCaP cells [3] = test: WST-1 cell proliferation assay, LNCaP; assay type: cell-based, human; conditions: for IC50: Homo sapiens, LNCaP, 72 h, WST-1, three days of exposure, mean ± SD, n = 3; for IC50 (Silibinin)/IC50(Derivative) LNCaP: fold potency relative to silibinin
Procedure: as §1, §2, §3

[4] = system: MCF 10A non-neoplastic human mammary epithelial cell line; test: WST-1 cell proliferation assay, MCF 10A non-neoplastic cells; assay type: cell-based; conditions: Homo sapiens, MCF-10A, 72 h; WST-1, three days of exposure, mean ± SD, n = 3
Procedure: (§4) Silibinin and five potent derivatives (11, 29, 31, 37, and 40) were selected for further evaluation against the MCF 10A non-neoplastic human mammary epithelial cell line and PWR-1E non-neoplastic human prostate epithelial cells.
as §3

[5] = system: PWR-1E non-neoplastic human prostate epithelial cells; test: WST-1 cell proliferation assay, PWR-1E non-neoplastic cells; assay type: cell-based; conditions: Homo sapiens, PWR-1E, 72 h; WST-1, three days of exposure, mean ± SD, n = 3
Procedure: as §4, §3

[6] = system: prostate cancer cell models; design: method as in PMID 17201169, PMID 26446382, PMID 27557939, PMID 21507570; conditions: cited from earlier work
PC-3 cells [7] = conditions: WST-1, three days of exposure; cited from earlier work
DU145 cells [8] = conditions: WST-1, three days of exposure; cited from earlier work
LNCaP cells [9] = conditions: WST-1, three days of exposure; cited from earlier work

| IC50 (PC-3 cells [1]) | IC50 (DU145 cells [2]) | IC50 (LNCaP cells [3]) | IC50 (Silibinin)/IC50(Derivative) PC-3 (PC-3 cells [1]) | IC50 (Silibinin)/IC50(Derivative) DU145 (DU145 cells [2]) | IC50 (Silibinin)/IC50(Derivative) LNCaP (LNCaP cells [3]) | melting point | Compound | IC50 [4] | IC50 [5] | IC50 [6] | IC50 (PC-3 cells [7]) | IC50 (DU145 cells [8]) | IC50 (LNCaP cells [9]) |
| --- | --- | --- | --- | --- | --- | --- | --- | --- | --- | --- | --- | --- | --- |
| 72.7 ± 3.15 µM | 93.3 ± 13.7 µM | 43.7 ± 10.9 µM | – | – | – | – | COc1cc(C2Oc3cc([C@H]4Oc5cc(O)cc(O)c5C(=O)[C@@H]4O)ccc3OC2CO)ccc1O (some centres unmarked) [Silibinin, reference compound] | 23.8 ± 0.96 µM | 20.4 ± 4.09 µM | 40 to 106 µM | – | – | – |
| – | – | – | 22 | 12 | 17 | – | CCOc1cc(O)c2c(=O)c(O)c(-c3ccc4c(c3)OC(c3ccc(O)c(OC)c3)C(CO)O4)oc2c1 (centres unmarked) [Compound 3, 7-O-ethyl-2,3-dehydrosilybin, reference compound] | – | – | – | 3.25 ± 0.31 µM | 7.59 ± 0.66 µM | 2.58 ± 0.07 µM |
| 26.1 ± 3.58 µM | 11.5 ± 2.38 µM | 5.71 ± 2.13 µM | 3 | 8 | 8 | 115 to 116 °C | COc1ccc(C2Oc3cc(-c4oc5cc(OCCCBr)cc(OC)c5c(=O)c4OC)ccc3OC2CO)cc1OC (centres unmarked) [Compound 8, 7-O-(3′-bromo)propyl-3,5,20-O-trimethyl-2,3-dehydrosilybin] | – | – | – | – | – | – |
| 42.6 ± 6.61 µM | 39.6 ± 9.49 µM | 12.1 ± 1.81 µM | 2 | 2 | 4 | 125 to 127 °C | CNCCCOc1cc(OC)c2c(=O)c(OC)c(-c3ccc4c(c3)OC(c3ccc(OC)c(OC)c3)C(CO)O4)oc2c1 (centres unmarked) [Compound 9, 7-O-(N-Methylaminopropyl)-3,5,20-O-trimethyl-2,3-dehydrosilybin] | – | – | – | – | – | – |
